One data set relates to MDA-MB-231. Description: SRB cell viability and combinational index. In kind it is cell-based. Conditions: Homo sapiens; MDA-MB-231 cells. How it is done: (§1) Dr. Susan Cole (Queen’s Universit y, Kingston, Ontario, Canada). The pacl itaxel-resistant MDA-MB-231TaxR cell line was generated in house b y culturing MDA-MB-231 cells (purchased from ATCC and authen ticated ) in the gradual l y incr easi ng con centr ations of pacl itax el until the concentration reached to 100 nM. Cell line authentication was carried out by Genetica DNA Laboratories (Burlington, NC) using a short tandem repeat (STR) profiling method (March 2015; […]
(§2) Cell viability, com binational i ndex and cell synchronization
(§3) Cell viability and proliferation were ex amined using a s ulforhodamine B (SRB) assa y as described previousl y (Hu et al., 2008). IC 50 values were calculat ed from si gmoidal dose-response cu rves gen erat ed b y at least two indepen dent ex periments , with each quadruplicate samples, using GraphPad Prism v.5.04 software (GraphPad Software, Inc, La J olla, CA). […]
737/ABT-199 w ere us ed at or below IC 50 . The combinational index (CI) w as calculat ed as previousl y described (Chou, 2006). […]
(§4) (Romero and Lee, 2008), and the cells were r eleas ed in to complete medium in the absence (sham) or presence of compound(s). […]

Data set [1] concerns the target T1, MRP1 (Homo sapiens, UniProt P33527).
T1 construct: expressed in transfected cells; host or cells: HEK293-MRP1 (gift of Dr. Susan Cole)
As to the kind of experiment: Calcein-AM retention assay, HEK293-MRP1 cells. It is filed as cell-based. The settings on record: 22 µmol/L, DMSO control 52%.

In the next data set the test system is HEK293-MRP1. Description: SRB cell viability, MRP1-overexpressing cells. It is filed as cell-based, human. The settings on record: HEK293-MRP1 vs HEK293.
Source text: Parental HEK293 and M RP1- overexpressing HEK293- MRP1 isogenic cel ls were kind gifts of Dr. Susan Cole (Queen’s Universit y, Kingston, Ontario, Canada). […]
as §2
(§5) Cell viability and proliferation were ex amined using a s ulforhodamine B (SRB) assa y as […]
(§6) IC 50 values were calculat ed from si gmoidal dose-response cu rves gen erat ed b y at least two indepen dent ex periments , with each quadruplicate samples, using GraphPad Prism v.5.04 software (GraphPad Software, Inc, La J olla, CA). […]
(§7) (sham) or presence of compound(s). […]

The target of data set [2] is T1, MRP1. Description: Rh123 dye efflux assay, HEK293-MRP1 cells. It is filed as cell-based. The settings on record: 22 µmol/L of drug, DMSO control 39.6%. As for the experimental part:
Rhodamine123 (Rh123) drug efflux was carried out using a Multidrug-Resistance Direct Dye Efflux Activity Kit (Millipore, Darmstadt, Germany), with some modifications. […] Reading was carried out with a Beckman Coulter FC500 flow cytometer.

For data set [3], the system named is MDA-MB-231 triple-negative metastatic breast cancer cells. As to the kind of experiment: Antitumor activity in engrafted athymic mice. In kind it is in vivo, ATH490 athymic mice. How it is done: The animals were then immediately euthanized by carbon dioxide. […]
Supplementary Table S2. A typical treatment protocol of engrafted mice with CTR alone or in
combination with paclitaxel.
Treatment Dos a ge Frequ enc y Route Notes
Sham control Highest volume E v e r y 3-4 d a ys Intraperitoneal (I.P.) Vehicle onl y
Taxa 10 mg/kgb Once/week Intravenous ( I.V.)
CTR-17 (30) 30 mg/kg E v e r y 3-4 d a ys I. P .
CTR-20 (30) 30 mg/kg E v e r y 3-4 d a ys I. P .
Supplementary Table S 3: Antitumor activity of CTR -17 and CTR -20, alone or in combination
a Tax: paclitaxel. b mg per kg of bod y wei ght. c unit is mm 3. […]

A further data set relates to SW-1271. As to the kind of experiment: SRB cell viability. The settings on record: SW1271, Table S1. It is filed as cell-based. How it is done: (§8) Cell line authentication was carried out by Genetica DNA
as §2, §5, §6, §7

Another data set has as its system H69AR. As to the kind of experiment: SRB cell viability, multidrug-resistant cells. Conditions: Table S1; for Resistance (fold): H69AR vs SW-1271; for IC50: Homo sapiens, H69AR. It is filed as cell-based. As for the experimental part: as §8, §2, §5, §6, §7
For data set [4] the following is noted: mouse, in vivo.
Protocol: Athymic mice engrafted with tumor cells were used to determine antitumor activity. […] When tumor size reached 5–6 mm in diameter (n = 4–5 per group), mice were randomly assigned into several groups and vehicle-treated or treated with drug(s). […] Animals were monitored for food and water consumption every day, and their body weights and tumor volumes were measured twice per week. Tumor volumes were measured with a digital caliper and were determined by the following formula: ½ length × width^2. Blood samples were collected via cardiac puncture and processed for ALT and AST measurements. The animals were then immediately euthanized by carbon dioxide. Tumors and vital organs (spleen, kidney, liver and lung) were harvested and fixed in 10% buffered formalin at 4 °C overnight before being processed for a paraffin embedding. The paraffin-embedded blocks were then sectioned to 4–5 µm thick. Each section was stained with haematoxylin and eosin (H&E).
For another data set, the system named is KB-C-1. Description: SRB cell viability, parental cells. In kind it is cell-based. The settings on record: Homo sapiens, KBC-1; KB-C-1; Table S1. As for the experimental part: (§9) human epidermoid carcinoma cell line and KB-C2, an isogenic MDR1- overexpressing drug-resistant cell line, were kindl y provided b y Dr. Amit K Tiwari, the Universit y of Toledo, OH. […]
as §8, §2, §5, §6, §7

A further data set concerns MDA-MB-231TaxR. Description: SRB cell viability, paclitaxel-resistant cells. In kind it is cell-based. The settings on record: MDA-MB-231TaxR vs MDA-MB-231. As for the experimental part: as §1, §2, §3, §4
Data set [5] has as its system KB-C-2. As to the kind of experiment: SRB cell viability, MDR1-overexpressing cells. It is filed as cell-based. The settings on record: Homo sapiens, KB-C2; KB-C-2; Table S1. As for the experimental part: as §9, §8, §2, §5, §6, §7
Data set [6] relates to KB-C-2. As to the kind of experiment: SRB cell viability, MDR1-overexpressing cells. Conditions: for Resistance (fold): KB-C-2 vs KB-C-1, Table S1. It is filed as cell-based, human.

Molecules are shown by their SMILES.

Consider five compounds from article PMC5578999, “Novel quinolone chalcones targeting colchicine-binding pocket kill multidrug-resistant cancer cells by inhibiting tubulin activity and MRP1 function” (Scientific Reports, 2017).

T1 sequence (P33527 whole entry): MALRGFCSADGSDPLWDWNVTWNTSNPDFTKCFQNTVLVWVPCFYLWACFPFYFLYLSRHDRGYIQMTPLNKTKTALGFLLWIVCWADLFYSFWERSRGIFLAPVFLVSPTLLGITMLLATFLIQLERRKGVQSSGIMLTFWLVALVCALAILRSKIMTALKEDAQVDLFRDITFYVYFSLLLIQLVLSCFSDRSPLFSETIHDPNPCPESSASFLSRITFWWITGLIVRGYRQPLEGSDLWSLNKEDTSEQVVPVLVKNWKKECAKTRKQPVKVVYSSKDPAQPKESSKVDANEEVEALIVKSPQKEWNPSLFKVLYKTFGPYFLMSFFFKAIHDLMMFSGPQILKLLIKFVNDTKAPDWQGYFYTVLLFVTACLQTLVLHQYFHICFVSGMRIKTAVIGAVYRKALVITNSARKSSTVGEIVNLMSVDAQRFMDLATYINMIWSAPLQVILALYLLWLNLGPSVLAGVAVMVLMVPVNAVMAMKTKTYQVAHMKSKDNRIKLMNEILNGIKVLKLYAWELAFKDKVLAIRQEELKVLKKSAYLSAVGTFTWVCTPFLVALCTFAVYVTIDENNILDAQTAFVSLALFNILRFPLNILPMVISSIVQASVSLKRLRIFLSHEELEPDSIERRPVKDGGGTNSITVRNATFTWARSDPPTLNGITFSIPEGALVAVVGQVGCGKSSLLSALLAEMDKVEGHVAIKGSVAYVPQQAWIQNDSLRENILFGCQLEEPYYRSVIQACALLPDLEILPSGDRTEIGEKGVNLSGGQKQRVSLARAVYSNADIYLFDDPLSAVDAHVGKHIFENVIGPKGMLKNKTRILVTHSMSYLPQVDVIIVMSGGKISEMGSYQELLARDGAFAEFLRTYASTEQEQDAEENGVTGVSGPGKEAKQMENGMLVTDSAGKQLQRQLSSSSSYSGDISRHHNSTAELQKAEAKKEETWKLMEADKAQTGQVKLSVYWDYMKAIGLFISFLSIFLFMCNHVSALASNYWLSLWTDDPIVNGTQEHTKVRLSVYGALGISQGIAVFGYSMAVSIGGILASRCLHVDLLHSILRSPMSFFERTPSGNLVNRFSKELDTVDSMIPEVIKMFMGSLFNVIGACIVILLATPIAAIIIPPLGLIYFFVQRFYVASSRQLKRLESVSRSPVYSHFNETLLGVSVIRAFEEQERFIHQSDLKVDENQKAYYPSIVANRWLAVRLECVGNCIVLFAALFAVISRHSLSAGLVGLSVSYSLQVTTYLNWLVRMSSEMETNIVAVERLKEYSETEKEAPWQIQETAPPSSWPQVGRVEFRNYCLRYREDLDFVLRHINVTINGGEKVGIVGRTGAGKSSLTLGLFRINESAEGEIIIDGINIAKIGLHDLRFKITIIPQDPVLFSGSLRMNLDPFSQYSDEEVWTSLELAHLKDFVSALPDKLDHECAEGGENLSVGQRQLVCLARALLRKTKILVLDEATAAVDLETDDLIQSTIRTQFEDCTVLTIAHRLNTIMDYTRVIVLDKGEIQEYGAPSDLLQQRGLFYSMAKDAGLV

Regarding `CC1(C)CCC(CN2CCN(c3ccc(C(=O)NS(=O)(=O)c4ccc(NCC5CCOCC5)c([N+](=O)[O-])c4)c(Oc4cnc5[nH]ccc5c4)c3)CC2)=C(c2ccc(Cl)cc2)C1` [ABT-199], the IC50 (in general, the concentration at which inhibition is half-maximal) in the data set on MDA-MB-231 worked out at 11600 ± 1130 nM.

On to `CN(C)CC[C@H](CSc1ccccc1)Nc1ccc(S(=O)(=O)NC(=O)c2ccc(N3CCN(Cc4ccccc4-c4ccc(Cl)cc4)CC3)cc2)cc1[N+](=O)[O-]` [ABT-737], for which the half-maximal inhibitory concentration (IC50) in the data set with MDA-MB-231 was 28500 ± 3990 nM.

Regarding `COc1cc2c(c(OC)c1OC)-c1ccc(OC)c(=O)cc1[C@@H](NC(C)=O)CC2` [colchicine], the “calcein-AM retained in the cells” value at MRP1 [1] is recorded as 59%. Moreover, the “resistance of MRP1-overexpressing HEK293 cells” value in the data set with HEK293-MRP1 is on record as “approximately 3.5 fold”. The Rh123 retention at MRP1 [2] came out at 77.6%.

As to `CC(=O)O[C@H]1C(=O)[C@@]2(C)[C@H]([C@H](OC(=O)c3ccccc3)[C@]3(O)C[C@H](OC(=O)[C@H](O)[C@@H](NC(=O)c4ccccc4)c4ccccc4)C(C)=C1C3(C)C)[C@]1(OC(C)=O)CO[C@@H]1C[C@@H]2O` [paclitaxel, reference compound], the “tumor volume Day 0” value in data set [3] (Tax 10 mg/kg i.v. once/week, CTR 30 mg/kg i.p. every 3-4 days, combinations Tax 5 + CTR 15 mg/kg once/week) is recorded as 91.84 mm3. For the same compound, in [3] (Tax 10 mg/kg i.v. once/week, CTR 30 mg/kg i.p. every 3-4 days, combinations Tax 5 + CTR 15 mg/kg once/week, sham 105.03), the “tumor volume Day 6” value came out at 90.11 mm3. In addition, the “tumor volume Day 14” value in data set [3] (same doses, sham 136.66) is reported as 94.66 mm3. Also, the “tumor volume Day 17” value in data set [3] (same doses, sham 162.62) is on record as 92.33 mm3. In data set [3] (same doses, sham 192.69), the “tumor volume Day 20” value is 81.66 mm3. The “tumor volume Day 24” value in data set [3] (same doses, sham 268.08) amounted to 95.61 mm3. The “tumor volume Day 27” value in [3] (same doses, sham 426.87) is 139.41 mm3. Also, in data set [3] (same doses, sham 557.66), the “tumor volume Day 30” value turned out to be 170.36 mm3. The IC50 came out at 4.51 ± 0.71 nM in the data set on SW-1271, 11 ± 2.6 nM in the data set on H69AR, 2.01 ± 0.17 nM with KB-C-1 and 23.08 ± 0.21 nM with KB-C-2 [5]. The figures for the “Resistance (fold)” value with H69AR and in the data set with KB-C-2 [6] were 2.44 fold and 11.48 fold, respectively. In data set [4], the “mice showing presence of hyaline in kidney” value is “one in four mice”. Moreover, the “resistance of MDA-MB-231TaxR” value in the data set with MDA-MB-231TaxR is on record as 114 times. The “resistance ratio of KB-C-2 vs KB-C-1 cells” value in the data set with KB-C-2 [6] is on record as 11.48 folds.

Turning to `CC[C@]1(O)C[C@@H]2CN(CCc3c([nH]c4ccccc34)[C@@](C(=O)OC)(c3cc4c(cc3OC)N(C)[C@H]3[C@@](O)(C(=O)OC)[C@H](OC(C)=O)[C@]5(CC)C=CCN6CC[C@]43[C@@H]65)C2)C1` [vinblastine], the IC50 was determined as 1.75 ± 0.21 nM in the data set with SW-1271, 10.2 ± 1.97 nM in the data set on H69AR, 0.61 ± 0.09 nM with KB-C-1 and 9.27 ± 3.22 nM in the data set with KB-C-2 [5]. In addition, the “Resistance (fold)” value in the data set on H69AR amounted to 5.82 fold; with KB-C-2 [6], 15.20 fold. Moreover, the “resistance ratio of KB-C-2 vs KB-C-1 cells” value in the data set on KB-C-2 [6] worked out at 15.20 folds.
